Tests used:
sGC α1/β1 heterodimer = sGC α1/β1 heterodimer (Homo sapiens (Human), UniProt Q02108+Q02153); assay: Cell-based sGC functional assay (cyclic GMP assay for sGC activator: CASA assay); settings: CHO-K1/sGC cells; for Emax: CHO-K1, activity expressed as percentage of compound A (standard), read-out: % Activation; for EC50: inflection point, 4P fit, read-out: IP
Procedure, shortened: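 CHO-K1 cells stably expressing sGC α1/β1 were pre-incubated with or without 1 μM DETA-NO (30 min, 25 °C), then exposed to compounds for 1 hr at 37 °C with 0.5 mM IBMX. Intracellular cGMP was read by HTRF and expressed as a percentage of a reference heme-dependent activator's maximum.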

[1] = target: human recombinant sGC enzyme (Homo sapiens (Human), UniProt Q02108+Q02153); assay: Size Exclusion Chromatography (SEC) competition binding assay using [3H] Ex-77B as the radioligand; settings: [3H] Ex-77B radioligand, 24 hours at 37° C.
Procedure, shortened: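 Recombinant human sGC binding measured by competition against tritiated Ex-77B radioligand, with non-specific binding defined by 1 μM unlabeled Ex-77B.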

SMILES	Emax (sGC α1/β1 heterodimer)	EC50 (sGC α1/β1 heterodimer)	Ki [1]
CC(C)(Cc1coc(C2(C)C(=O)Nc3nc(-c4nn(Cc5cccc(F)c5)c5ncccc45)nc(N)c32)n1)C(=O)O (stereo not drawn) [Example 150A, 3-(2-{4-amino-2-[1-(3-fluoro-benzyl)-1H-pyrazolo [3,4-b]pyridin-3-yl]-5-methyl-6-oxo-6,7-dihydro-5H-pyrrolo[2,3-d]pyrimidin-5-yl}-1,3-oxazol-4-yl)-2,2-dimethyl-propanoic acid]	102%	294 nM	0.096 nM
CC(C)(Cc1coc(C2(C)C(=O)Nc3nc(-c4nn(CC5CCCCC5)c5ncccc45)nc(N)c32)n1)C(=O)O (stereo not drawn) [Example 152A, 3-(2-{4-amino-2-[1-(cyclohexyl-methyl)-1H-pyrazolo[3,4-b]pyridin-3-yl]-5-methyl-6-oxo-6,7-dihydro-5H-pyrrolo[2,3-d]pyrimidin-5-yl}-1,3-oxazol-4-yl)-2,2-dimethyl-propanoic acid]	118%	120 nM	0.031 nM
CC(C)(Cc1coc(C2(C)C(=O)Nc3nc(-c4nn(CC5CCCC5)c5ncccc45)nc(N)c32)n1)C(=O)O (stereo not drawn) [Example 154A, 3-(2-{4-amino-2-[1-(cyclopentyl-methyl)-1H-pyrazolo[3,4-b]pyridin-3-yl]-5-methyl-6-oxo-6,7-dihydro-5H-pyrrolo[2,3-d]pyrimidin-5-yl}-1,3-oxazol-4-yl)-2,2-dimethyl-propanoic acid]	104%	577 nM	0.091 nM
CC1(c2nc(-c3ccc(C(=O)O)cc3)cs2)C(=O)Nc2nc(-c3nn(CCC(F)(F)C(F)(F)F)c4cc(Cl)ccc34)nc(N)c21 (stereo not drawn) [Example 156A, 4-(2-{4-amino-2-[6-chloro-1-(3,3,4,4,4-penta-fluorobutyl)-1H-indazol-3-yl]-5-methyl-6-oxo-6,7-dihydro-5H-pyrrolo[2,3-d]pyrimidin-5-yl}-1,3-thiazol-4-yl)benzoic acid]	93.5%	161 nM	0.17 nM
CC1(c2ccc(/C=C/C(=O)O)cc2)C(=O)Nc2nc(-c3nn(CCC(F)(F)C(F)(F)F)c4cc(Cl)ccc34)nc(N)c21 (stereo not drawn) [Example 157A, (2E)-3-(4-{4-amino-2-[6-chloro-1-(3,3,4,4,4-penta-fluorobutyl)-1H-indazol-3-yl]-5-methyl-6-oxo-6,7-dihydro-5H-pyrrolo[2,3-d]pyrimidin-5-yl}phenyl)prop-2-enoic acid]	143%	185 nM	0.258 nM
Nc1nc(-c2nn(CCC(F)(F)C(F)(F)F)c3cc(Cl)ccc23)nc2c1C(c1ccc(CCC(=O)O)cc1)(C1CC1)C(=O)N2 (stereo not drawn) [Example 158A, 3-(4-{4-amino-2-[6-chloro-1-(3,3,4,4,4-penta-fluorobutyl)-1H-indazol-3-yl]-5-cyclopropyl-6-oxo-6,7-dihydro-5H-pyrrolo[2,3-d]pyrimidin-5-yl}phenyl)propanoic acid]	88.8%	353 nM	0.864 nM
CC(C)(Cc1coc(C2(C)C(=O)Nc3nc(-c4nn(CC5CCCCC5)c5cc(Cl)ccc45)nc(N)c32)n1)C(=O)O (stereo not drawn) [Example 159A, 3-(2-{4-amino-2-[6-chloro-1-(cyclohexylmethyl)-1H-indazol-3-yl]-5-methyl-6-oxo-6,7-dihydro-5H-pyrrolo[2,3-d]pyrimidin-5-yl}-1,3-oxazol-4-yl)-2,2-dimethyl-propanoic acid]	113%	221 nM	0.125 nM

Continued, values first:

Emax (sGC α1/β1 heterodimer)	EC50 (sGC α1/β1 heterodimer)	Ki [1]	SMILES
121%	291 nM	0.081 nM	CC(C)(Cc1coc(C2(C)C(=O)Nc3nc(-c4nn(CC5CCCC5)c5cc(Cl)ccc45)nc(N)c32)n1)C(=O)O (stereo not drawn) [Example 161A, 3-(2-{4-amino-2-[6-chloro-1-(cyclopentylmethyl)-1H-indazol-3-yl]-5-methyl-6-oxo-6,7-dihydro-5H-pyrrolo[2,3-d]pyrimidin-5-yl}-1,3-oxazol-4-yl)-2,2-dimethyl-propanoic acid]
76.5%	69 nM	0.15 nM	CC(C)(Cc1csc([C@]2(C)C(=O)Nc3nc(-c4nn(CC5CCCC5)c5cc(Cl)ccc45)nc(N)c32)n1)C(=O)O [Example 162A, (S)-3-(2-{4-amino-2-[6-chloro-1-(cyclopentyl-methyl)-1H-indazol-3-yl]-5-methyl-6-oxo-6,7-dihydro-5H-pyrrolo[2,3-d]pyrimidin-5-yl}-1,3-thiazol-4-yl)-2,2-dimethyl-propanoic acid]
127%	439 nM	0.099 nM	CC1(c2nc(-c3ccc(C(=O)O)cc3)co2)C(=O)Nc2nc(-c3nn(Cc4ccccc4F)c4cc(Cl)ccc34)nc(N)c21 (stereo not drawn) [Example 164A, 4-(2-{4-amino-2-[6-chloro-1-(2-fluorobenzyl)-1H-indazol-3-yl]-5-methyl-6-oxo-6,7-dihydro-5H-pyrrolo[2,3-d]pyrimidin-5-yl}-1,3-oxazol-4-yl) benzoic acid]
110%	48 nM	0.081 nM	CC1(c2nc(-c3ccc(C(=O)O)cc3)cs2)C(=O)Nc2nc(-c3nn(Cc4ccccc4F)c4cc(Cl)ccc34)nc(N)c21 (stereo not drawn) [Example 165A, 4-(2-{4-amino-2-[6-chloro-1-(2-fluorobenzyl)-1H-indazol-3-yl]-5-methyl-6-oxo-6,7-dihydro-5H-pyrrolo[2,3-d]pyrimidin-5-yl}-1,3-thiazol-4-yl) benzoic acid]
107%	93 nM	0.07 nM	CC(C)(CCc1coc(C2(C)C(=O)Nc3nc(-c4nn(Cc5ccccc5F)c5cc(Cl)ccc45)nc(N)c32)n1)C(=O)O (stereo not drawn) [Example 167B, 4-(2-{4-amino-2-[6-chloro-1-(2-fluorobenzyl)-1H-indazol-3-yl]-5-methyl-6-oxo-6,7-dihydro-5H-pyrrolo[2,3-d]pyrimidin-5-yl}-1,3-oxazol-4-yl)-2,2-dimethyl-butanoic acid]
141%	207 nM	0.164 nM	CC1(c2nc3cc(C(=O)O)ccc3o2)C(=O)Nc2nc(-c3nn(Cc4ccccc4F)c4cc(Cl)ccc34)nc(N)c21 (stereo not drawn) [Example 168B, 2-{4-amino-2-[6-chloro-1-(2-fluorobenzyl)-1H-indazol-3-yl]-5-methyl-6-oxo-6,7-dihydro-5H-pyrrolo[2,3-d]pyrimidin-5-yl}-1,3-benzoxazole-5-carboxylic acid]
90.3%	159 nM	0.104 nM	CC1(c2cccc(C(=O)O)c2)C(=O)Nc2nc(-c3nn(Cc4ccccc4F)c4cc(Cl)ccc34)nc(N)c21 (stereo not drawn) [Example 169B, 3-{4-amino-2-[6-chloro-1-(2-fluorobenzyl)-1H-indazol-3-yl]-5-methyl-6-oxo-6,7-dihydro-5H-pyrrolo[2,3-d]pyrimidin-5-yl} benzoic acid]
130%	655 nM	0.118 nM	Cc1oc(C2(C)C(=O)Nc3nc(-c4nn(Cc5ccccc5F)c5cc(Cl)ccc45)nc(N)c32)nc1CC(C)(C)C(=O)O (stereo not drawn) [Example 170B, 3-(2-{4-amino-2-[6-chloro-1-(2 fluorobenzyl)-1H-indazol-3-yl]-5-methyl-6-oxo-6,7-dihydro-5H-pyrrolo[2,3-d]pyrimidin-5-yl}-5-methyl-1,3-oxazol-4-yl)-2,2-dimethylpropanoic acid]
135%	1220 nM	0.094 nM	CC(C)(Cn1cc(C2(C)C(=O)Nc3nc(-c4nn(Cc5ccccc5F)c5cc(Cl)ccc45)nc(N)c32)cn1)C(=O)O (stereo not drawn) [Example 171A, 3-(4-{4-amino-2-[6-chloro-1-(2-fluorobenzyl)-1H-indazol-3-yl]-5-methyl-6-oxo-6,7-dihydro-5H-pyrrolo[2,3-d]pyrimidin-5-yl}-1H-pyrazol-1-yl)-2,2-dimethyl-propanoic acid]
